From PubChem BioAssay (NCI)
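The compound was tested at five concentrations on cells cultured in 96-well plates, with a 48-hour exposure period. GI50 marks 50% less growth. The concentration for full growth arrest is given as TGI.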 *1 amine or outer side, *2 acyl side, *3 side chain or, on linkers, in order; H or OH if unused. Where a SMILES comes first, the peptide text is derived from it. Bridges are numbered along the chain shown (N, C = ends). [ ]: non-standard residue; d: D form. The star is where a group is joined. Phe(3-F) = N[C@@H](Cc1cccc(F)c1)C(=O)O; Pro(4R-Me) = C[C@H]1CN[C@H](C(=O)O)C1; aThr = C[C@H](O)[C@H](N)C(=O)O; Pip = O=C(O)[C@@H]1CCCCN1; X8 = CCc1ccc(N*)c(F)c1; CO = O=C([*:1])[*:2]

Key:
Experiment in all cases: NCI tumour cell line growth inhibition, 48 h
EKVX NSCLC = tested on: EKVX NSCLC
COLO 205 colon = tested on: COLO 205 colon
NCI-H23 lung = tested on: NCI-H23 lung
RPMI-8226 leukemia = tested on: RPMI-8226 leukemia
MALME-3M melanoma = tested on: MALME-3M melanoma
UACC-257 melanoma = tested on: UACC-257 melanoma
HCT-15 colon = tested on: HCT-15 colon
MDA-MB-435 = tested on: MDA-MB-435
CAKI-1 renal = tested on: CAKI-1 renal
BT-549 breast = tested on: BT-549 breast
NCI-H460 lung = tested on: NCI-H460 lung
786-0 renal = tested on: 786-0 renal
SF-268 CNS = tested on: SF-268 CNS
SK-MEL-28 melanoma = tested on: SK-MEL-28 melanoma
NCI-H226 lung = tested on: NCI-H226 lung
UO-31 renal = tested on: UO-31 renal
CCRF-CEM leukemia = tested on: CCRF-CEM leukemia
SW-620 colon = tested on: SW-620 colon
DU-145 prostate = tested on: DU-145 prostate
HL-60(TB) leukemia = tested on: HL-60(TB) leukemia
ACHN renal = tested on: ACHN renal
NCI/ADR-RES ovarian = tested on: NCI/ADR-RES ovarian
HOP-92 NSCLC = tested on: HOP-92 NSCLC
HS 578T breast = tested on: HS 578T breast
A549 NSCLC = tested on: A549 NSCLC
SK-OV-3 ovarian = tested on: SK-OV-3 ovarian
SN12C renal = tested on: SN12C renal
M14 melanoma = tested on: M14 melanoma
TK-10 renal = tested on: TK-10 renal
SK-MEL-2 melanoma = tested on: SK-MEL-2 melanoma
OVCAR-3 ovarian = tested on: OVCAR-3 ovarian
HT29 colon = tested on: HT29 colon
MCF7 breast = tested on: MCF7 breast
PC-3 prostate = tested on: PC-3 prostate
SNB-75 CNS = tested on: SNB-75 CNS
LOX IMVI melanoma = tested on: LOX IMVI melanoma
SF-539 CNS = tested on: SF-539 CNS
HCC-2998 colon = tested on: HCC-2998 colon
SNB-19 CNS = tested on: SNB-19 CNS
SR leukemia = tested on: SR leukemia
K-562 leukemia = tested on: K-562 leukemia
IGROV1 ovarian = tested on: IGROV1 ovarian
HOP-62 NSCLC = tested on: HOP-62 NSCLC
HCT-116 colon = tested on: HCT-116 colon
UACC-62 melanoma = tested on: UACC-62 melanoma
T-47D breast = tested on: T-47D breast
U251 CNS = tested on: U251 CNS
KM12 colon = tested on: KM12 colon
MDA-MB-231 breast = tested on: MDA-MB-231 breast
SF-295 CNS = tested on: SF-295 CNS
RXF 393 renal = tested on: RXF 393 renal
SK-MEL-5 melanoma = tested on: SK-MEL-5 melanoma
OVCAR-8 ovarian = tested on: OVCAR-8 ovarian
OVCAR-4 ovarian = tested on: OVCAR-4 ovarian
OVCAR-5 ovarian = tested on: OVCAR-5 ovarian
NCI-H522 lung = tested on: NCI-H522 lung
MOLT-4 leukemia = tested on: MOLT-4 leukemia
A498 renal = tested on: A498 renal

SMILES: CCc1ccc(NC(=O)N[C@@H](Cc2cccc(F)c2)C(=O)N[C@@H]2C(=O)N3CCC[C@H]3C(=O)N3CCCC[C@H]3C(=O)N[C@@H](C)C(=O)N3C[C@H](C)C[C@H]3C(=O)O[C@H]2C)c(F)c1 ({X8-CO}-[Phe(3-F)][aThr]P[Pip]A[Pro(4R-Me)]; ester 2-C)
- GI50 (EKVX NSCLC): 367 nM
- TGI (EKVX NSCLC): > 58100 nM
- GI50 (COLO 205 colon): 180 nM
- TGI (COLO 205 colon): 511 nM
- GI50 (NCI-H23 lung): 425 nM
- TGI (NCI-H23 lung): 20200 nM
- GI50 (RPMI-8226 leukemia): 55.3 nM
- TGI (RPMI-8226 leukemia): 4340 nM
- GI50 (MALME-3M melanoma): 464 nM
- TGI (MALME-3M melanoma): 11400 nM
- GI50 (UACC-257 melanoma): 319 nM
- TGI (UACC-257 melanoma): 5320 nM
- GI50 (HCT-15 colon): 347 nM
- TGI (HCT-15 colon): 7220 nM
- GI50 (MDA-MB-435): 183 nM
- TGI (MDA-MB-435): 6010 nM
- GI50 (CAKI-1 renal): 296 nM
- TGI (CAKI-1 renal): 13500 nM
- GI50 (BT-549 breast): 199 nM
- TGI (BT-549 breast): 2800 nM
- GI50 (NCI-H460 lung): 262 nM
- TGI (NCI-H460 lung): 12900 nM
- GI50 (786-0 renal): 421 nM
- TGI (786-0 renal): 75200 nM
- GI50 (SF-268 CNS): 463 nM
- TGI (SF-268 CNS): 53400 nM
- GI50 (SK-MEL-28 melanoma): 589 nM
- TGI (SK-MEL-28 melanoma): 13100 nM
- GI50 (NCI-H226 lung): 351 nM
- TGI (NCI-H226 lung): 5230 nM
- GI50 (UO-31 renal): 377 nM
- TGI (UO-31 renal): 16500 nM
- GI50 (CCRF-CEM leukemia): 252 nM
- TGI (CCRF-CEM leukemia): 29900 nM
- GI50 (SW-620 colon): 486 nM
- TGI (SW-620 colon): > 60700 nM
- GI50 (DU-145 prostate): 285 nM
- TGI (DU-145 prostate): > 100000 nM
- GI50 (HL-60(TB) leukemia): 135 nM
- TGI (HL-60(TB) leukemia): 1700 nM
- GI50 (ACHN renal): 503 nM
- TGI (ACHN renal): > 53700 nM
- GI50 (NCI/ADR-RES ovarian): 962 nM
- TGI (NCI/ADR-RES ovarian): > 51200 nM
- GI50 (HOP-92 NSCLC): 380 nM
- TGI (HOP-92 NSCLC): 6750 nM
- GI50 (HS 578T breast): 264 nM
- TGI (HS 578T breast): 4580 nM
- GI50 (A549 NSCLC): 509 nM
- TGI (A549 NSCLC): > 79500 nM
- GI50 (SK-OV-3 ovarian): 583 nM
- GI50 (SN12C renal): 294 nM
- TGI (SN12C renal): > 57300 nM
- GI50 (M14 melanoma): 214 nM
- TGI (M14 melanoma): 2090 nM
- GI50 (TK-10 renal): 608 nM
- TGI (TK-10 renal): 29100 nM
- GI50 (SK-MEL-2 melanoma): 243 nM
- TGI (SK-MEL-2 melanoma): 2020 nM
- GI50 (OVCAR-3 ovarian): 337 nM
- TGI (OVCAR-3 ovarian): 6870 nM
- GI50 (HT29 colon): 352 nM
- TGI (HT29 colon): 2750 nM
- GI50 (MCF7 breast): 272 nM
- TGI (MCF7 breast): 19300 nM
- GI50 (PC-3 prostate): 191 nM
- TGI (PC-3 prostate): > 100000 nM
- GI50 (SNB-75 CNS): 202 nM
- TGI (SNB-75 CNS): 3590 nM
- GI50 (LOX IMVI melanoma): 369 nM
- TGI (LOX IMVI melanoma): 16200 nM
- GI50 (SF-539 CNS): 541 nM
- TGI (SF-539 CNS): 12600 nM
- GI50 (HCC-2998 colon): 353 nM
- TGI (HCC-2998 colon): 2710 nM
- GI50 (SNB-19 CNS): 218 nM
- TGI (SNB-19 CNS): > 82900 nM
- GI50 (SR leukemia): 380 nM
- TGI (SR leukemia): 10200 nM
- GI50 (K-562 leukemia): 52.6 nM
- TGI (K-562 leukemia): > 56200 nM
- GI50 (IGROV1 ovarian): 614 nM
- TGI (IGROV1 ovarian): > 47700 nM
- GI50 (HOP-62 NSCLC): 562 nM
- TGI (HOP-62 NSCLC): > 53200 nM
- GI50 (HCT-116 colon): 60.4 nM
- TGI (HCT-116 colon): 2620 nM
- GI50 (UACC-62 melanoma): 369 nM
- TGI (UACC-62 melanoma): 10100 nM
- GI50 (T-47D breast): 337 nM
- TGI (T-47D breast): 18900 nM
- GI50 (U251 CNS): 318 nM
- TGI (U251 CNS): 31800 nM
- GI50 (KM12 colon): 919 nM
- TGI (KM12 colon): 18000 nM
- GI50 (MDA-MB-231 breast): 283 nM
- TGI (MDA-MB-231 breast): 2270 nM
- GI50 (SF-295 CNS): 270 nM
- TGI (SF-295 CNS): 1710 nM
- GI50 (RXF 393 renal): 948 nM
- TGI (RXF 393 renal): 7960 nM
- GI50 (SK-MEL-5 melanoma): 354 nM
- TGI (SK-MEL-5 melanoma): 1570 nM
- GI50 (OVCAR-8 ovarian): 145 nM
- TGI (OVCAR-8 ovarian): > 100000 nM
- GI50 (OVCAR-4 ovarian): 163 nM
- TGI (OVCAR-4 ovarian): > 19900 nM
- GI50 (OVCAR-5 ovarian): 439 nM
- TGI (OVCAR-5 ovarian): 4660 nM
- GI50 (NCI-H522 lung): 182 nM
- TGI (NCI-H522 lung): 6820 nM
- GI50 (MOLT-4 leukemia): 594 nM
- TGI (MOLT-4 leukemia): 18100 nM
- GI50 (A498 renal): 616 nM
- TGI (A498 renal): 7340 nM
